The target in one assay is Influenza RNA polymerase (Influenza A virus, UniProt P03431). Nature of the assay: Influenza RNA Polymerase Inhibition (IC50) Assay. The note with it: virus lysate of Influenza A/PR/8/34 (H1N1), 30° C. for 90 minutes, α-33P labeled NTP incorporation. It is filed as biochemical. How it is done: Influenza RNA Polymerase Inhibition (IC50) Assay
Influenza A/PR/8/34 (H1N1) purified virus was obtained from Advanced Biotechnologies Inc. (Columbia, Md.) as suspension in PBS buffer. Virions were disrupted by exposure to an equal volume of 2% Triton X-100 for 30 minutes at room temperature in a buffer containing 100 mM Tris-HCl, pH 8, 200 mM KCl, 3 mM dithiothreitol [DTT], 10% glycerol, 10 mM MgCl2, 2 U/mL RNasin Ribonuclease Inhibitor, and 2 mg/mL Lysolechithin type V (Sigma, Saint Louis, Mo.). The virus lysate was stored at −80° C. in aliquots.
The concentrations refer to final concentrations unless mentioned otherwise. Nucleotide analog inhibitors were serially diluted 3 fold in water and added to reaction mix containing 10% virus lysate (v/v), 100 mM Tris-HCl (pH 8.0), 100 mM KCl, 1 mM DTT, 10% glycerol, 0.25% Triton-101 (reduced), 5 mM MgCl2, 0.4 U/mL RNasin, and 200 μM ApG dinucleotide primer (TriLink, San Diego Calif.). […]
Reactions were incubated at 30° C. for 90 minutes then spotted onto DE81 filter paper. Filters were air dried, washed 0.125 M Na2HPO4 (3×), water (1×), and EtOH (1×), and air dried before exposed to Typhoon phosphor imager and radioactivity was quantified on a Typhoon Trio (GE Healthcare, Piscataway N.J.). […]

The test system of assay [1] is Influenza B virus B/Lee/40. Nature of the assay: Normal Human Bronchial/Tracheal Epithelial Cell Influenza Infection Assay (EC50), Influenza B Lee/40. It is filed as cell-based. The note with it: Normal Human Bronchial/Tracheal Epithelial Cells, 10 MOI, five day incubation, neuramidase substrate fluorescence, read-out: Infl B Lee/40 EC50. Here is the method:
Normal Human Bronchial/Tracheal Epithelial Cell Influenza Infection Assay (EC50)
Normal Human Bronchial/Tracheal Epithelial Cells (Lonza, Basel Switzerland) are seeded to 384-well plates at a density of 4000 cells per well in BEGM medium supplemented with growth factors (Lonza, Basel Switzerland). Medium is removed next day, and cells are washed three times with 100 μL of RPMI+1% BSA (RPMI-BSA). 30 μL of RPMI-BSA is added to cells thereafter. Compounds are 3-fold serially diluted in DMSO, and 0.4 μL of compound dilutions are stamped to plates. Influenza A virus HK/8/68 (Advanced Biotechnology Inc, Columbia, Md., 13.5 MOI), PC/1/73 (ATCC Manassas, Va., 0.3 MOI) and Influenza B virus B/Lee/40 ((ATCC Manassas, Va., 10 MOI) are added to cells in 10 μL of RPMI-BSA medium supplemented with 8 ug/mL trypsin (Worthington, Lakewood, N.J.). After a five day incubation, 40 μL of buffer containing 66 mM Mes pH 6.5, 8 mM CaCl2, 0.5% NP-40 and 100 μM neuramidase substrate (2′-(4-Methylumbelliferyl)-α-D-N-acetylneuraminic acid sodium salt hydrate, Sigma Aldrich, St. Luis, Mo.) is added to cells. Fluorescence of the product of hydrolysis is read using excitation at 360 nm and emission at 450 nm after a 1 hour incubation at 37° C. EC50 values are calculated by non-linear regression of multiple data sets.

In assay [2] the test system is Influenza A virus PC/1/73. Kind of assay: microbe, parasite or virus in culture. The note with it: read-out: Infl A PC/1/73 EC50. It is filed as cell-based.

Where two headings read alike, the source gives them in different places.

Chain of Influenza RNA polymerase (P03431 whole entry, looked up): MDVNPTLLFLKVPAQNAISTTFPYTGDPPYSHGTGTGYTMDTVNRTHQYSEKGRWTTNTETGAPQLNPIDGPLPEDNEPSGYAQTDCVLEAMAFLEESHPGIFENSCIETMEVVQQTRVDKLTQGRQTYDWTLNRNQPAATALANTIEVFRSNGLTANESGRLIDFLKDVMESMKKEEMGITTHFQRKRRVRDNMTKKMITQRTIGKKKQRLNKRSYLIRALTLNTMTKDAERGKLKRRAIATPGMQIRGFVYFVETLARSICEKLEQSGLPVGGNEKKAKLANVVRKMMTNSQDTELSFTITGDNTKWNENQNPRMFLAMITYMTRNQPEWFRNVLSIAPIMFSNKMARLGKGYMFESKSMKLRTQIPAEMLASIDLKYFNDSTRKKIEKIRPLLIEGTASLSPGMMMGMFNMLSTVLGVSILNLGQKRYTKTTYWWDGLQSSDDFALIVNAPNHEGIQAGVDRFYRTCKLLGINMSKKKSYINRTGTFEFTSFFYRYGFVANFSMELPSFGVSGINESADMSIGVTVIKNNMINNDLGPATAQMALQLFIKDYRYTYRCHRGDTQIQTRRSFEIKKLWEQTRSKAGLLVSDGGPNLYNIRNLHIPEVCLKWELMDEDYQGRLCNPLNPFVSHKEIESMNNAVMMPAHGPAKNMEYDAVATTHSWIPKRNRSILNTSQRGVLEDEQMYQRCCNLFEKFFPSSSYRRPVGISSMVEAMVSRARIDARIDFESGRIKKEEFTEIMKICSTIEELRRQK

Consider `Nc1nn2c([C@@H]3O[C@H](COP(=O)(O)OP(=O)(O)OP(=O)(O)O)[C@@H](O)[C@H]3F)cnc2c(=O)[nH]1` [Compound 8, ((2R, 3R, 4R, 5S)-5-(2-amino-4-oxo-3,4-dihydroimidazo[1,2-J][1,2,4]triazin-7-yl)-4-fluoro-3-hydroxy-3-hydroxytetrahydrofuran-2-yl)methyl tetrahydrogen triphosphate], for which it took 2.8 µM to reach half-maximal inhibition at Influenza RNA polymerase (IC50). That is a single-digit micromolar value. With `Nc1nc(N)c2ncc(C3OC(CO)C(O)C3F)n2n1` [Compound 6, (2S,3S,4R,5R)-5-(2,4-diaminoimidazo[1,2-f][1,2,4]triazin-7-yl)-4-fluoro-2-(hydroxymethyl)tetrahydrofuran-3-ol], the EC50 in assay [1] is 51 µM; in assay [2] it was 21 µM. For `CCOc1nc(N)nn2c([C@@H]3O[C@H](CO)[C@@H](O)[C@H]3F)cnc12` [Compound 18, (2R,3R,4R,5S)-5-(2-amino-4-ethoxyimidazo[1,2-f][1,2,4]triazine-7-yl)-4-fluoro-2-(hydroxymethyl)tetrahydrofuran-3-ol], in that order: > 200 µM and > 200 µM. For the compound `COc1nc(N)nn2c([C@@H]3O[C@H](CO)[C@@H](O)[C@H]3F)cnc12` [Compound 19, (2R,3R,4R,5S)-5-(2-amino-4-methoxyimidazo[1,2-f][1,2,4]triazin-7-yl)-4-fluoro-2-(hydroxymethyl)tetrahydrofuran-3-ol], the EC50 in assay [1] (Influenza B virus, Epithelial cell, 120 h) was 36 µM; in assay [2] (Influenza A virus, Epithelial cell, 120 h), 30 µM. Turning to `Nc1ncnn2c([C@H]3O[C@@H](CO)[C@H](O)[C@H]3F)cnc12` [Compound 10, (2S,3S,4R,5R)-5-(4-aminoimidazo[1,2-f][1,2,4]triazin-7-yl)-4-fluoro-2-(hydroxymethyl)tetrahydrofuran-3-ol], the EC50 in assay [1] and in assay [2] was 0.9 µM in each case. With `Nc1nc(F)nn2c([C@@H]3O[C@H](CO)[C@@H](O)[C@H]3F)cnc12` [Compound 12, (2R,3R,4R,5S)-5-(4-amino-2-fluoroimidazo[1,2-f][1,2,4]triazin-7-yl)-4-fluoro-2-(hydroxymethyl)tetrahydrofuran-3-ol], the EC50 in assay [1] and in assay [2] was > 100 µM throughout. For `Nc1nn2c([C@@H]3O[C@H](CO)[C@@H](O)[C@@H]3F)cnc2c(=O)[nH]1` [Compound 7], the EC50 was 37 µM in assay [1] and 27 µM in assay [2].

Broadly, the IC50 is the midpoint of a concentration-inhibition curve. A high value points to lower potency.

These data come from patent publication US10941177B2, “2′-substituted carba-nucleoside analogs for antiviral treatment” (Gilead Sciences, Inc., priority 2012, dated 2021).
